Test results from patent US5700819A, “2-substituted benzothiazole derivatives and prophylactic and therapeutic agents for the treatment of diabetic complications” (Grelan Pharmaceutical Co., Ltd., priority 1994, dated 1997).
Blank lines part the entries; values can stand above or below the molecule they belong to.

Experiments:
[1] = system: Normal ICR mice; assay: Safety Study; format: in vivo; conditions: 1000 mg/kg oral, single dose; observed 7 days; male ICR mice, 5/group
Method: The safety of the compounds of the present invention was confirmed according to the following experimental procedure.
Normal ICR mice (male, 7-week-old, 5 mice/group), fasted for 18 hours, received orally the compound each of Examples 1-ii), 5-ii), 19-ii), 21, 22-ii) and 23-ii) suspended in 0.5% carboxymethyl cellulose at a dose of 1000 mg/kg. Control groups received only 0.5% carboxymethyl cellulose orally. […] The mice were fed with diet and water ad libitum during the experiment.

[2] = system: sorbitol accumulation in tissues (sciatic nerve, lens) of experimental diabetic rats; assay: Inhibitory Effect on Sorbitol Accumulation in the Tissues of Experimental Diabetic Rats (Therapeutic Effect); format: in vivo, Sprague-Dawley rats; conditions: 5 days, from 7 days after streptozotocin, control = 100%, ** P < 0.01 (Tukey); for Sorbitol Accumulation, Nerve: sciatic nerve
Method: 4) Inhibitory Effect on Sorbitol Accumulation in the Tissues of Experimental Diabetic Rats (Therapeutic Effect)
Sprague-Dawley rats (male, 6-week-old, 5 to 6 rats/group), fasted for 18 hours, were made diabetic by injecting streptozotocin (Sigma) at a dose of 60 mg/kg body weight into the tail vein thereof. From 7 days after the streptozotocin injection, a sample compound suspended in 0.5% carboxymethyl cellulose was administered orally to the rats at a dose between 1 and 10 mg/kg once daily for 5 consecutive days. The rats were fed with diet and water ad libitum during the experiment. Three hours after the final administration, the sorbitol contents in the tissues (sciatic nerve, lens) was assayed enzymatically using SDH (sorbitol dehydrogenase) and NAD (β-nicotinamide adenine dinucleotide) according to the method by H. U. Bergmeyer et al. (Methods of Enzymatic Analysis, 3, p. 1323-1330 (1974)). The sorbitol contents in control groups to which 0.5% carboxymethyl cellulose was administered instead of sample compounds is expressed as 100%.

[3] = biological target: T1, Aldose reductase (Sus scrofa, UniProt P80276); assay: Aldose Reductase Inhibition; format: biochemical; conditions: porcine lens aldose reductase; DL-glyceraldehyde 3 mM, NADPH 0.1 mM, pH 6.2, 37° C.
T1 construct: Aldose reductase samples were prepared from porcine lens; from tissue; host or cells: porcine lens
Method: Aldose reductase samples were prepared from porcine lens according the method by S. Hayman et al., (Journal of Biological Chemistry, 240, p. 877-882 (1965)). In brief, lens of porcine eyes were frozen (-80° C.) until employed. These lenses were homogenized with distilled water and then centrifuged at 10,000×g for 15 minutes. The supernatant was fractionated with 0 to 40% ammonium sulfate and centrifuged at 10,000×g for 10 minutes. The resultant supernatant was dialyzed overnight against 0.05M sodium chloride. The dialyzed solution was used as an aldose reductase sample. (Assay of Enzymatic Activity) Aldose reductase activity was assayed according to the aforementioned method by S. Hayman et al. In brief, to 200 μl of 40 mM phosphate buffer (pH 6.2) containing lithium sulfate, 0.4M (final concentration); NADPH (reduced nicotinamide adenine dinucleotide phosphate), 0.1 mM (final concentration); and DL-glyceraldehyde as a substrate, 3 mM (final concentration) was added 25 μl of the aldose reductase solution obtained by the aforementioned method and 25 μl of 1% DMSO solutions containing a sample inhibitor compound with different concentrations. The mixtures were incubated at 37° C. for 2 minutes for reaction and changes in the absorbance at 340 nm were read using an auto-analyzer (Hitachi Corporation, Model 7070, Japan). The change in the absorbance of a mixed solution including 1% DMSO instead of sample compounds was expresses as 100%. […] IC50 (M) means the concentration of the compounds, required for 50% inhibition of aldose reductase activity.

[4] = system: sorbitol accumulation in tissues (sciatic nerve, lens) of experimental diabetic rats; assay: Inhibitory Effect on Sorbitol Accumulation in the Tissues of Experimental Diabetic Rats (Prophylactic effect); format: in vivo, Sprague-Dawley rats; conditions: control = 100%, ** P < 0.01 (Tukey); for Sorbitol Accumulation, Nerve: sciatic nerve
Method: 2) Inhibitory Effect on Sorbitol Accumulation in the Tissues of Experimental Diabetic Rats (Prophylactic effect)
Sprague-Dawley rats (male, 6-week-old, 5-6 rats/group), fasted for 18 hours, were made diabetic by a single intravenous (tail vein) injection of 60 mg/kg body weight of streptozotocin (Sigma). Four, eight and twenty four hours after the injection of streptozotocin, respectively, a sample compound suspended in 0.5% carboxymethyl cellulose was administered orally to the rats at a dose of 10 or 30 mg/kg. The rats were fed with diet and water ad libitum during the experiment. Three hours after the final administration, the sorbitol contents in the tissues (sciatic nerve, lens) was assayed enzymatically using SDH (sorbitol dehydrogenase) and NAD (β-nicotinamide adenine dinucleotide) according to the method by H. U. Bergmeyer et al. (Methods of Enzymatic Analysis, 3, p. 1323-1330 (1974)). The sorbitol contents in control groups to which 0.5% carboxymethyl cellulose was administered instead of sample compounds is expressed as 100%.

[5] = 30 mg/kg oral, 4, 8 and 24 h after streptozotocin
[6] = 10 mg/kg oral, 4, 8 and 24 h after streptozotocin

Compound: Cc1cc(CC(=O)O)cc(Cc2nc3c(F)c(F)ccc3s2)c1 [23-ii), 3-[(4,5-difluorobenzothiazol-2-yl)methyl]-5-methylphenylacetic acid]
- mortality [1]: No animal died

- IC50 [3]: 6.6 nM
Compound: O=C(O)Cc1cccc(Cc2nc3c(F)c(F)cc(F)c3s2)c1 [Example 1-ii), 3-[(4,5,7-trifluorobenzothiazol-2-yl)methyl]phenylacetic acid]
- Sorbitol Accumulation, Lens ([2]; 10 mg/kg oral once daily): 68%
- Sorbitol Accumulation, Nerve ([2]; 10 mg/kg oral once daily): 2%
- Sorbitol Accumulation, Lens [4, 5]: 4%
- Sorbitol Accumulation, Nerve [4, 5]: 0%

- IC50 [3]: 13 nM
Compound: CN(CC(=O)O)C(=O)CCc1nc2c(F)c(F)cc(F)c2s1 [Example 3-iii), N-[3-(4,5,7-trifluorobenzothiazol-2-yl)propionyl]-N-methylglycine]

- IC50 [3]: 8.3 nM
Compound: O=C(O)CN(C(=O)CCc1nc2c(F)c(F)cc(F)c2s1)c1ccccc1 [Example 4-ii), N-[3-(4,5,7-trifluorobenzothiazol-2-yl)propionyl]-N-phenylglycine]
- Sorbitol Accumulation, Lens [4, 5]: 20%
- Sorbitol Accumulation, Nerve [4, 5]: 46%

- IC50 [3]: 9.7 nM
Compound: O=C(O)CN(Cc1ccccc1)C(=O)CCc1nc2c(F)c(F)cc(F)c2s1 [Example 5-ii), N-benzyl-N-[3-(4,5,7-trifluorobenzothiazol-2-yl)propionyl]glycine]

- IC50 [3]: 23 nM
Compound: O=C(O)CN(Cc1ccccc1)C(=S)CCc1nc2c(F)c(F)cc(F)c2s1 [Example 8-ii), N-benzyl-N-[3-(4,5,7-trifluorobenzothiazol-2-yl)-1-thioxopropyl]glycine]

- IC50 [3]: 14 nM
Compound: O=C(O)CCCCSc1nc2c(F)c(F)cc(F)c2s1 [Example 15-ii), 5-(4,5,7-trifluorobenzothiazol-2-ylthio)pentanoic acid]

- IC50 [3]: 12 nM
Compound: O=C(O)Cc1cccc(Cc2nc3c(Cl)c(Cl)ccc3s2)c1 [Example 19-ii), 3-[(4,5-dichlorobenzothiazol-2-yl)methyl]phenylacetic acid]

- IC50 [3]: 19 nM
Compound: O=C(O)Cc1ccccc1Cc1nc2c(F)c(F)cc(F)c2s1 [Example 20-ii), 2-[(4,5,7-trifluorobenzothiazol-2-yl)methyl]phenylacetic acid]
- Sorbitol Accumulation, Lens [4, 6]: 63%
- Sorbitol Accumulation, Nerve [4, 6]: 15%

- IC50 [3]: 6.7 nM
Compound: O=C(O)Cc1cccc(Cc2nc3c(F)c(F)ccc3s2)c1 [Example 21, 3-[(4,5-difluorobenzothiazol-2-yl)methyl]phenylacetic acid]
- Sorbitol Accumulation, Lens [4, 6]: 40%
- Sorbitol Accumulation, Nerve [4, 6]: 0%

- IC50 [3]: 9.6 nM
Compound: Cc1cc(CC(=O)O)cc(Cc2nc3c(F)c(F)cc(F)c3s2)c1 [Example 22-ii), 3-[(4,5,7-trifluorobenzothiazol-2-yl)methyl]-5-methylphenylacetic acid]
- Sorbitol Accumulation, Lens ([2]; 3 mg/kg oral once daily): 25%
- Sorbitol Accumulation, Nerve ([2]; 3 mg/kg oral once daily): 2%
- Sorbitol Accumulation, Lens [4, 6]: 41%
- Sorbitol Accumulation, Nerve [4, 6]: 0%

Compound: O=C(O)Cc1cccc(Cc2nc3c(F)c(F)ccc3s2)c1Cl [Example 24-ii), 3-[(4,5-difluorobenzothiazol-2-yl)methyl]-2-chlorophenylacetic acid]
- Sorbitol Accumulation, Lens ([2]; 10 mg/kg oral once daily): 26%
- Sorbitol Accumulation, Nerve ([2]; 10 mg/kg oral once daily): 11%

Compound: O=C(O)Cc1cccc(Cc2nc3c(F)c(F)cc(F)c3s2)c1Cl [Example 25-ii), 3-[(4,5,7-trifluorobenzothiazol-2-yl)methyl]-2-chlorophenylacetic acid]
- Sorbitol Accumulation, Lens ([2]; 1 mg/kg oral once daily): 47%
- Sorbitol Accumulation, Nerve ([2]; 1 mg/kg oral once daily): 0%

- IC50 [3]: 9.4 nM
Compound: O=C(O)Cc1cc(Br)cc(Cc2nc3c(F)c(F)cc(F)c3s2)c1 [Example 28-ii), 3-[(4,5,7-trifluorobenzothiazol-2-yl)methyl]-5-bromophenylacetic acid]

- IC50 [3]: 8.7 nM
Compound: O=C(O)Cc1cc(Cc2nc3c(F)c(F)cc(F)c3s2)cc(C(=O)O)c1 [Example 30-ii), 3-[(4,5,7-trifluorobenzothiazol-2-yl)methyl]-5-carboxymethylbenzoic acid]

- IC50 [3]: 6.7 nM
Compound: CN(C)c1cc(CC(=O)O)cc(Cc2nc3c(F)c(F)cc(F)c3s2)c1 [Example 31-ii), 3-[(4,5,7-trifluorobenzothiazol-2-yl)methyl]-5-dimethylaminophenylacetic acid]
- Sorbitol Accumulation, Lens ([2]; 3 mg/kg oral once daily): 77%
- Sorbitol Accumulation, Nerve ([2]; 3 mg/kg oral once daily): 1%

- IC50 [3]: 8.4 nM
Compound: O=C(O)CN(C(=S)CCc1nc2c(F)c(F)cc(F)c2s1)c1ccccc1 [Example 32-ii), N-[3-(4,5,7-trifluorobenzothiazol-2-yl)-1-thioxopropionyl]-N-phenylglycine]
